Assay results from PubChem BioAssay (NCI).
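1) Cells in 96-well plates. 2) Compound, 48 h, 5 concentrations. 3) Linear interpolation between surrounding doses. 4) Unreached endpoint = highest concentration. GI50: concentration for 50% inhibition of growth. The concentration for full growth arrest is given as TGI.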

Assays:
Test in all cases: inhibition of tumour cell growth, NCI panel, 48 h; in the data active means GI50 below about 0.43 µM; inactive means the rest
SK-OV-3 ovarian = tested on: SK-OV-3 ovarian
KM12 colon = tested on: KM12 colon
A549 NSCLC = tested on: A549 NSCLC
K-562 leukemia = tested on: K-562 leukemia
SR leukemia = tested on: SR leukemia
IGROV1 ovarian = tested on: IGROV1 ovarian
DU-145 prostate = tested on: DU-145 prostate
SK-MEL-2 melanoma = tested on: SK-MEL-2 melanoma
NCI-H522 lung = tested on: NCI-H522 lung
SF-295 CNS = tested on: SF-295 CNS
NCI/ADR-RES ovarian = tested on: NCI/ADR-RES ovarian
ACHN renal = tested on: ACHN renal
EKVX NSCLC = tested on: EKVX NSCLC
HS 578T breast = tested on: HS 578T breast
HCT-116 colon = tested on: HCT-116 colon
T-47D breast = tested on: T-47D breast
SNB-19 CNS = tested on: SNB-19 CNS
MOLT-4 leukemia = tested on: MOLT-4 leukemia
SNB-75 CNS = tested on: SNB-75 CNS
TK-10 renal = tested on: TK-10 renal
BT-549 breast = tested on: BT-549 breast
NCI-H23 lung = tested on: NCI-H23 lung
MDA-MB-231 breast = tested on: MDA-MB-231 breast
UACC-62 melanoma = tested on: UACC-62 melanoma
M14 melanoma = tested on: M14 melanoma
COLO 205 colon = tested on: COLO 205 colon
MDA-MB-435 = tested on: MDA-MB-435
SN12C renal = tested on: SN12C renal
OVCAR-5 ovarian = tested on: OVCAR-5 ovarian
MCF7 breast = tested on: MCF7 breast
NCI-H226 lung = tested on: NCI-H226 lung
A498 renal = tested on: A498 renal
HCT-15 colon = tested on: HCT-15 colon
PC-3 prostate = tested on: PC-3 prostate
RXF 393 renal = tested on: RXF 393 renal
LOX IMVI melanoma = tested on: LOX IMVI melanoma
OVCAR-4 ovarian = tested on: OVCAR-4 ovarian
OVCAR-3 ovarian = tested on: OVCAR-3 ovarian
NCI-H460 lung = tested on: NCI-H460 lung
MALME-3M melanoma = tested on: MALME-3M melanoma
SF-539 CNS = tested on: SF-539 CNS
SK-MEL-5 melanoma = tested on: SK-MEL-5 melanoma
786-0 renal = tested on: 786-0 renal
U251 CNS = tested on: U251 CNS
HCC-2998 colon = tested on: HCC-2998 colon
HT29 colon = tested on: HT29 colon
OVCAR-8 ovarian = tested on: OVCAR-8 ovarian
SK-MEL-28 melanoma = tested on: SK-MEL-28 melanoma
SW-620 colon = tested on: SW-620 colon
SF-268 CNS = tested on: SF-268 CNS
HOP-62 NSCLC = tested on: HOP-62 NSCLC
CCRF-CEM leukemia = tested on: CCRF-CEM leukemia
UO-31 renal = tested on: UO-31 renal
HL-60(TB) leukemia = tested on: HL-60(TB) leukemia
CAKI-1 renal = tested on: CAKI-1 renal
HOP-92 NSCLC = tested on: HOP-92 NSCLC
RPMI-8226 leukemia = tested on: RPMI-8226 leukemia
UACC-257 melanoma = tested on: UACC-257 melanoma

COc1c(C)c2c(c(O)c1C/C=C(\C)CCC(=O)OCCN1CCOCC1)C(=O)OC2
inactive: GI50 (SK-OV-3 ovarian) 462 nM | GI50 (SK-MEL-2 melanoma) 33600 nM | GI50 (NCI/ADR-RES ovarian) 471 nM | GI50 (ACHN renal) 458 nM | GI50 (HS 578T breast) 7000 nM | GI50 (T-47D breast) 612 nM | GI50 (SNB-75 CNS) 475 nM | GI50 (TK-10 renal) > 24700 nM | GI50 (MDA-MB-231 breast) 3480 nM | GI50 (COLO 205 colon) 692 nM | GI50 (SN12C renal) 448 nM | GI50 (OVCAR-5 ovarian) 2090 nM | GI50 (NCI-H226 lung) 581 nM | GI50 (A498 renal) 520 nM | GI50 (PC-3 prostate) 562 nM | GI50 (RXF 393 renal) 774 nM | GI50 (OVCAR-4 ovarian) 576 nM | GI50 (MALME-3M melanoma) 2500 nM | GI50 (HT29 colon) 552 nM | GI50 (OVCAR-8 ovarian) 464 nM | GI50 (SF-268 CNS) 532 nM | GI50 (HOP-62 NSCLC) 457 nM | GI50 (UO-31 renal) 599 nM | GI50 (HL-60(TB) leukemia) 1120 nM | GI50 (HOP-92 NSCLC) 5180 nM | GI50 (RPMI-8226 leukemia) 891 nM | GI50 (UACC-257 melanoma) 573 nM
> 24900 nM: TGI (SNB-75 CNS)
> 76700 nM: TGI (OVCAR-4 ovarian)
active: GI50 (KM12 colon) 317 nM | GI50 (A549 NSCLC) 289 nM | GI50 (K-562 leukemia) 151 nM | GI50 (SR leukemia) 240 nM | GI50 (IGROV1 ovarian) 270 nM | GI50 (DU-145 prostate) 415 nM | GI50 (NCI-H522 lung) 300 nM | GI50 (SF-295 CNS) 323 nM | GI50 (HCT-116 colon) 131 nM | GI50 (SNB-19 CNS) 325 nM | GI50 (MOLT-4 leukemia) 302 nM | GI50 (BT-549 breast) 426 nM | GI50 (NCI-H23 lung) 245 nM | GI50 (UACC-62 melanoma) 354 nM | GI50 (M14 melanoma) 290 nM | GI50 (MDA-MB-435) 201 nM | GI50 (MCF7 breast) 196 nM | GI50 (HCT-15 colon) 92.8 nM | GI50 (LOX IMVI melanoma) 125 nM | GI50 (OVCAR-3 ovarian) 348 nM | GI50 (NCI-H460 lung) 82.3 nM | GI50 (SF-539 CNS) 375 nM | GI50 (SK-MEL-5 melanoma) 383 nM | GI50 (786-0 renal) 385 nM | GI50 (U251 CNS) 110 nM | GI50 (HCC-2998 colon) 390 nM | GI50 (SK-MEL-28 melanoma) 236 nM | GI50 (SW-620 colon) 142 nM | GI50 (CCRF-CEM leukemia) 187 nM | GI50 (CAKI-1 renal) 299 nM
> 100000 nM: TGI (SK-OV-3 ovarian) | TGI (KM12 colon) | TGI (A549 NSCLC) | TGI (K-562 leukemia) | TGI (IGROV1 ovarian) | TGI (DU-145 prostate) | TGI (SK-MEL-2 melanoma) | TGI (NCI-H522 lung) | TGI (SF-295 CNS) | TGI (NCI/ADR-RES ovarian) | TGI (ACHN renal) | TGI (EKVX NSCLC) | TGI (HS 578T breast) | TGI (HCT-116 colon) | TGI (T-47D breast) | TGI (SNB-19 CNS) | TGI (MOLT-4 leukemia) | TGI (TK-10 renal) | TGI (BT-549 breast) | TGI (NCI-H23 lung) | TGI (MDA-MB-231 breast) | TGI (UACC-62 melanoma) | TGI (M14 melanoma) | TGI (COLO 205 colon) | TGI (MDA-MB-435) | TGI (SN12C renal) | TGI (OVCAR-5 ovarian) | TGI (MCF7 breast) | TGI (NCI-H226 lung) | TGI (A498 renal) | TGI (HCT-15 colon) | TGI (PC-3 prostate) | TGI (RXF 393 renal) | TGI (LOX IMVI melanoma) | TGI (OVCAR-3 ovarian) | TGI (NCI-H460 lung) | TGI (MALME-3M melanoma) | TGI (SF-539 CNS) | TGI (SK-MEL-5 melanoma) | TGI (786-0 renal) | TGI (U251 CNS) | TGI (HCC-2998 colon) | TGI (HT29 colon) | TGI (OVCAR-8 ovarian) | TGI (SK-MEL-28 melanoma) | TGI (SW-620 colon) | TGI (SF-268 CNS) | TGI (HOP-62 NSCLC) | TGI (CCRF-CEM leukemia) | TGI (UO-31 renal) | TGI (HL-60(TB) leukemia) | TGI (CAKI-1 renal) | TGI (HOP-92 NSCLC) | TGI (RPMI-8226 leukemia) | TGI (UACC-257 melanoma)
32600 nM: TGI (SR leukemia)
